Source: ChEMBL document CHEMBL1201862, “PubChem BioAssay data set” (2004)
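Protocol summary: plate cells (96-well), add compound at 5 concentrations, incubate 48 h, interpolate endpoints linearly. GI50 marks 50% less growth.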 Calls of active or inactive are those of the source. No stated cut-off is given here; in the data, active = GI50 up to about 1.1 µM and inactive = higher.

Tests used:
Test in all cases: DTP human tumour cell line panel, 48 h
A549 = system: A549
CAKI-1 = system: CAKI-1
COLO 205 = system: COLO 205
HOP-92 = system: HOP-92
HT-29 = system: HT-29
K562 = system: K562
MOLT-4 = system: MOLT-4
NCI-H226 = system: NCI-H226
NCI-H460 = system: NCI-H460
OVCAR-5 = system: OVCAR-5
OVCAR-8 = system: OVCAR-8
RPMI-8226 = system: RPMI-8226
RXF 393 = system: RXF 393
SF-268 = system: SF-268
SF-539 = system: SF-539
SK-MEL-28 = system: SK-MEL-28
SK-MEL-2 = system: SK-MEL-2
SNB-19 = system: SNB-19
UO-31 = system: UO-31
XF498 = system: XF498

Row | SMILES | GI50 (A549) | GI50 (CAKI-1) | GI50 (COLO 205) | GI50 (HOP-92) | GI50 (HT-29) | GI50 (K562) | GI50 (MOLT-4) | GI50 (NCI-H226) | GI50 (NCI-H460) | GI50 (OVCAR-5) | GI50 (OVCAR-8) | GI50 (RPMI-8226) | GI50 (RXF 393) | GI50 (SF-268) | GI50 (SF-539) | GI50 (SK-MEL-28) | GI50 (SK-MEL-2) | GI50 (SNB-19) | GI50 (UO-31) | GI50 (XF498)
1 | CCCCN1CN2C(=O)C(C(=O)OCC)C(=O)c3sc4nc(SC)nc1c4c32 (stereo not drawn) | 19.9 µM (inactive) | 17.3 µM (inactive) | 18.7 µM (inactive) | 14.9 µM (inactive) | 19.8 µM (inactive) | 35.5 µM (inactive) | 29 µM (inactive) | 19 µM (inactive) | 19.5 µM (inactive) | 18.6 µM (inactive) | 21.6 µM (inactive) | 21.1 µM (inactive) | 20.5 µM (inactive) | 19.9 µM (inactive) | 18.5 µM (inactive) | 19.8 µM (inactive) | 19.8 µM (inactive) | 19 µM (inactive) | 21.1 µM (inactive) | –
2 | O=NN(CCCl)C(=O)N[C@H]1CC[C@@H](O)CC1 | 81.3 µM (inactive) | 27.5 µM (inactive) | 24.4 µM (inactive) | 8.43 µM (inactive) | 60.3 µM (inactive) | 23.6 µM (inactive) | 20.6 µM (inactive) | 34.2 µM (inactive) | 28.3 µM (inactive) | > 100 µM (inactive) | 33 µM (inactive) | 14 µM (inactive) | 23.9 µM (inactive) | 13.6 µM (inactive) | 23.3 µM (inactive) | 25.3 µM (inactive) | > 100 µM (inactive) | 51.2 µM (inactive) | 72.4 µM (inactive) | 21.5 µM (inactive)
3 | CCOC(=O)C1=C(C)N2CCCOC2(C)C(C(=O)OC)C1c1cccc([N+](=O)[O-])c1 (stereo not drawn) | 64.3 µM (inactive) | 64.9 µM (inactive) | > 100 µM (inactive) | > 100 µM (inactive) | > 100 µM (inactive) | 55.2 µM (inactive) | 34.3 µM (inactive) | > 100 µM (inactive) | 57.4 µM (inactive) | – | 48 µM (inactive) | 35 µM (inactive) | > 100 µM (inactive) | > 100 µM (inactive) | > 100 µM (inactive) | > 100 µM (inactive) | > 100 µM (inactive) | > 100 µM (inactive) | 51.6 µM (inactive) | –
4 | COc1cccc(N2C(Cl)C(=O)C2c2c[nH]c3ccccc23)c1 (stereo not drawn) | > 100 µM (inactive) | – | > 100 µM (inactive) | > 100 µM (inactive) | > 100 µM (inactive) | > 100 µM (inactive) | > 100 µM (inactive) | – | > 100 µM (inactive) | 46.1 µM (inactive) | > 100 µM (inactive) | > 100 µM (inactive) | > 100 µM (inactive) | > 100 µM (inactive) | – | > 100 µM (inactive) | > 100 µM (inactive) | > 100 µM (inactive) | 42.8 µM (inactive) | > 100 µM (inactive)
5 | CCOC(=O)Cn1c(=O)c(C)cn(COCCO)c1=O | > 100 µM (inactive) | > 100 µM (inactive) | > 100 µM (inactive) | > 100 µM (inactive) | > 100 µM (inactive) | > 100 µM (inactive) | > 100 µM (inactive) | 0.155 µM (active) | > 100 µM (inactive) | > 100 µM (inactive) | > 100 µM (inactive) | > 100 µM (inactive) | > 100 µM (inactive) | > 100 µM (inactive) | > 100 µM (inactive) | > 100 µM (inactive) | > 100 µM (inactive) | > 100 µM (inactive) | > 100 µM (inactive) | –
6 | CCN1CCCC(NCc2c3ccccc3c(CNC3CCCN(CC)C3)c3ccccc23)C1 (stereo not drawn) | > 48 µM (inactive) | 16.1 µM (inactive) | 1.99 µM (inactive) | 11.1 µM (inactive) | 2.6 µM (inactive) | 7.85 µM (inactive) | 3.18 µM (inactive) | 13.4 µM (inactive) | 3.65 µM (inactive) | 5.96 µM (inactive) | > 33.7 µM (inactive) | 10.2 µM (inactive) | 3.48 µM (inactive) | 7.8 µM (inactive) | 14.9 µM (inactive) | 11.8 µM (inactive) | 5.16 µM (inactive) | 11.1 µM (inactive) | 24.8 µM (inactive) | 20.5 µM (inactive)
7 | CCCCCCCCCCCCCCCCSCC(COC)COP(=O)([O-])OCC[N+](C)(C)C (stereo not drawn) [ILMOFOSINE] | 7.21 µM (inactive) | 3.52 µM (inactive) | 1.97 µM (inactive) | 2.26 µM (inactive) | 3.09 µM (inactive) | 13.6 µM (inactive) | 2.41 µM (inactive) | 3.72 µM (inactive) | 2.5 µM (inactive) | 13.3 µM (inactive) | 9.06 µM (inactive) | 2.49 µM (inactive) | 3.52 µM (inactive) | 7.57 µM (inactive) | 16.1 µM (inactive) | 15.5 µM (inactive) | 15.5 µM (inactive) | 4.3 µM (inactive) | 7.69 µM (inactive) | 6.3 µM (inactive)
